Laboratory results: paper PMC4281095 (Journal of Medicinal Chemistry, 2014)

What was measured:
hIMPDH2 = hIMPDH2 (Homo sapiens, UniProt P12268); experiment: Assessment of hIMPDH2 inhibition, NADH production; format: biochemical; details: read-out: hIMPDH2 inhibition
CpIMPDH [1] = molecular target: T1, CpIMPDH (Cryptosporidium parvum, UniProt Q8T6T2); experiment: CpIMPDH inhibition, NADH production monitored by fluorescence; details: for CpIMPDH inhibition, result in words: qualitative statement; for fold increase in CpIMPDH activity: relative to 8a; for fold loss of CpIMPDH potency / inhibition: relative to 8k
T1 sequence (Q8T6T2 1-400): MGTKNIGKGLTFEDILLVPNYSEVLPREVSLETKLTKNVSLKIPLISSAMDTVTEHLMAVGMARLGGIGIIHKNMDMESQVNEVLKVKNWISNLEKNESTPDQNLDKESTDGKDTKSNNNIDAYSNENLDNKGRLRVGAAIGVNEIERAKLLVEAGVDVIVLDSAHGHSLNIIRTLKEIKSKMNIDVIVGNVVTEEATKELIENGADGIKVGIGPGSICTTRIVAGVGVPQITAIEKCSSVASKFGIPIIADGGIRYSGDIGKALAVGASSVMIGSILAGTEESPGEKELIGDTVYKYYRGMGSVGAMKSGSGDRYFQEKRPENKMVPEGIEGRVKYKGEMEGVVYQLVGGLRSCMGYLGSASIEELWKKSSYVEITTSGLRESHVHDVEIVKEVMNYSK

CpIMPDH [2] = molecular target: T1, CpIMPDH; details: read-out: CpIMPDH IC50; cited from earlier work
hIMPDH1 = details: read-out: hIMPDH1 Ki; cited from earlier work

Compound	CpIMPDH inhibition, result in words (CpIMPDH [1])	other results
COc1cccc(NC(=O)Cn2ncc3c(=O)oc4ccccc4c32)c1 [8a, 4-oxo-N-(3-methoxyphenyl)-[1]benzopyrano[4,3-c]pyrazole-1(4H)-acetamide]	–	inhibition at 5 µM (hIMPDH2): < 20%
O=C(Cn1ncc2c(=O)oc3ccccc3c21)Nc1cccc(Cl)c1 [8b]	loss of inhibition	–
O=C(Cn1ncc2c(=O)oc3ccccc3c21)Nc1ccccc1Cl [8c]	no inhibitory activity	–
O=C(Cn1ncc2c(=O)oc3ccccc3c21)Nc1ccc(F)cc1 [8d]	–	fold increase in CpIMPDH activity (CpIMPDH [1]): 3 fold
O=C(Cn1ncc2c(=O)oc3ccccc3c21)Nc1ccc(C(F)(F)F)cc1 [8e]	–	fold increase in CpIMPDH activity (CpIMPDH [1]): 3 fold
O=C(Cn1ncc2c(=O)oc3ccccc3c21)Nc1ccc(Cl)cc1Cl [8g]	no inhibition activity	–
COc1ccc(NC(=O)Cn2ncc3c(=O)oc4ccccc4c32)cc1OC [8i]	loss of enzyme inhibition	–
COc1cc(N(C)C(=O)Cn2ncc3c(=O)oc4ccccc4c32)ccc1Cl [8l]	loss of activity	–
COc1cc(NC(=O)C(C)n2ncc3c(=O)oc4ccccc4c32)ccc1Cl (centres unmarked) [8m]	–	fold loss of CpIMPDH potency / inhibition (CpIMPDH [1]): 3 fold
O=C(Cn1ncc2c(=O)oc3ccccc3c21)Nc1ccc2[nH]cnc2c1 [13a]	only weak or no inhibitory activity	–
O=C(Cn1ncc2c(=O)oc3ccccc3c21)Nc1ccc2[nH]ccc2c1 [13c]	only weak or no inhibitory activity	–
COc1cc(NC(=O)Cn2ncc3c2-c2ccccc2OC3)ccc1Cl [13e]	–	fold loss of CpIMPDH potency / inhibition (CpIMPDH [1]): 3 fold
COc1c(C)c2c(c(O)c1C/C=C(\C)CCC(=O)O)C(=O)OC2 [mycophenolic acid]	–	IC50 (CpIMPDH [2]): ~10 µM; Ki (hIMPDH1): 33 nM
